Experimental data as given in patent publication US9107900B2, “Use of dronedarone for the preparation of a medicament for use in the prevention of cardiovascular hospitalization or of morality” (SANOFI, priority 2008, dated 2015).
Where a name gives a salt, the structure may show the parent alone.

Assay: blood potassium level from regular blood samples in the same clinical study
Format: in vivo, human
Conditions: after the 24th month, taking into account the starting value; vs placebo; p<0.0001
Text: The potassium concentration-modulating effect is clearly documented in the study by virtue of the results of analyses of regular blood samples taken throughout the duration of the study in the context of the monitoring of vital parameters.
The variations in potassium (in mmol/l) between the first and the last administration of the medicament of the study are included in FIG. 8, in which B signifies basal level, D signifies day and M signifies month.

CCCCc1oc2ccc(NS(C)(=O)=O)cc2c1C(=O)c1ccc(OCCCN(CCCC)CCCC)cc1 [dronedarone hydrochloride, 2-n-Butyl-3-[4-(3-di-n-butylaminopropoxy)benzoyl]-5-methylsulphonamidobenzofuran]
change in blood potassium level (analysis of covariance): significant different in favour of dronedarone
